Measurements reported in US8895761B2, “4-phenylpyrane-3,5-diones, 4-phenylthiopyrane-3,5-diones and 2-phenylcyclohexane-1,3,5-triones as herbicides” (Syngenta Limited, priority 2007, dated 2014).

Legend:
Type in all cases: in vivo
Avena fatua (AVEFA) [1] = experiment: Pre-emergence herbicidal glasshouse test, Avena fatua; conditions: Avena fatua, 312 h, rate 250 g/ha, evaluated after 13 days, scale 100 = total damage to plant, 0 = no damage
Outline: (§1)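 Visual damage scores (0 = undamaged, top = plant totally killed) were taken 13 days after spraying. Treatment was given one day after sowing or at day 8 of cultivation, under 24/16° C. glasshouse conditions.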

[2] = tested on: Echinochloa crus-galli (ECHCG); experiment: Post-emergence herbicidal glasshouse test, Echinochloa crus-galli; conditions: Echinochloa crus-galli, 312 h, rate 250 g/ha, evaluated after 13 days, scale 100 = total damage to plant, 0 = no damage
Outline: as §1

Setaria faberi (SETFA) [3] = experiment: Pre-emergence herbicidal glasshouse test, Setaria faberi; conditions: Setaria faberi, 312 h, rate 250 g/ha, evaluated after 13 days, scale 100 = total damage to plant, 0 = no damage
Protocol: (§2) Seeds of a variety of test species were sown in standard soil in pots. After cultivation for one day (pre-emergence) or after 8 days cultivation (post-emergence) under controlled conditions in a glasshouse (at 24/16° C., day/night; 14 hours light; 65% humidity), the plants were sprayed with an aqueous spray solution derived from the formulation of the technical active ingredient in acetone/water (50:50) solution containing 0.5% Tween 20 (polyoxyethelyene sorbitan monolaurate, CAS RN 9005-64-5). The test plants were then grown in a glasshouse under controlled conditions in a glasshouse (at 24/16° C., day/night; 14 hours light; 65% humidity) and watered twice daily. After 13 days for pre and post-emergence, the test was evaluated ([…] to plant; 0=no damage to plant).
(§3) Setaria faberi (SETFA), Lolium perenne (LOLPE), Alopecurus myosuroides (ALOMY), Echinochloa crus-galli (ECHCG) and Avena fatua (AVEFA).

[4] = tested on: Alopecurus myosuroides (ALOMY); experiment: Pre-emergence herbicidal glasshouse test, Alopecurus myosuroides; conditions: Alopecurus myosuroides, 312 h, rate 250 g/ha, evaluated after 13 days, scale 100 = total damage to plant, 0 = no damage
Outline: as §1

[5] = tested on: Echinochloa crus-galli (ECHCG); experiment: Pre-emergence herbicidal glasshouse test, Echinochloa crus-galli; conditions: Echinochloa crus-galli, 312 h, rate 250 g/ha, evaluated after 13 days, scale 100 = total damage to plant, 0 = no damage
Outline: as §1

[6] = tested on: Alopecurus myosuroides (ALOMY); experiment: Post-emergence herbicidal glasshouse test, Alopecurus myosuroides; conditions: Alopecurus myosuroides, 312 h, rate 250 g/ha, evaluated after 13 days, scale 100 = total damage to plant, 0 = no damage
Outline: as §1

Setaria faberi (SETFA) [7] = experiment: Post-emergence herbicidal glasshouse test, Setaria faberi; conditions: Setaria faberi, 312 h, rate 250 g/ha, evaluated after 13 days, scale 100 = total damage to plant, 0 = no damage
Protocol: as §2, §3

Avena fatua (AVEFA) [8] = experiment: Post-emergence herbicidal glasshouse test, Avena fatua; conditions: Avena fatua, 312 h, rate 250 g/ha, evaluated after 13 days, scale 100 = total damage to plant, 0 = no damage
Outline: as §1

CCOC[C@]12CC[C@H](O1)C(=O)C(c1ccc(-c3ccc(Cl)cc3)cc1CC)=C2O [Compound A-33]
pest or weed control at 250 g/ha (Avena fatua (AVEFA) [1]): 40% | pest or weed control at 250 g/ha [2]: 100% | pest or weed control at 250 g/ha (Setaria faberi (SETFA) [3]): 30% | pest or weed control at 250 g/ha [4]: 20% | pest or weed control at 250 g/ha [5]: 60% | pest or weed control at 250 g/ha [6]: 90% | pest or weed control at 250 g/ha (Setaria faberi (SETFA) [7]): 100% | pest or weed control at 250 g/ha (Avena fatua (AVEFA) [8]): 80%
